Reference: ChEMBL document CHEMBL1806407, “Site-directed mutagenesis provides insights into the selective binding of trityl derivatives to Plasmodium falciparum dUTPase” (Eur J Med Chem, 2011)

What was measured:
dUTP pyrophosphatase [1] = molecular target: dUTP pyrophosphatase (Plasmodium falciparum 3D7, UniProt Q8II92, I117A); experiment: Inhibition of recombinant Plasmodium falciparum dUTPase I117A mutant expressed in Escherichia coli BL21(DE3) cells using dUTP as substrate by spectrophotometric analysis
Chain of dUTP pyrophosphatase (Plasmodium falciparum 3D7, UniProt Q8II92, I117A) (Q8II92 whole entry I117A): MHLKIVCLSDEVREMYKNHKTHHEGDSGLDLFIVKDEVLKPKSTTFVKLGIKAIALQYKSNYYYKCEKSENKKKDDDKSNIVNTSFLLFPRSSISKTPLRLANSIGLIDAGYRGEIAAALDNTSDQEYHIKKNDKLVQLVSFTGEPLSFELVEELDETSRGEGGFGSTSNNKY

[2] = Selectivity index, ratio Ki for recombinant wild type Plasmodium falciparum dUTPase expressed in Escherichia coli BL21(DE3) cells to Ki for human dUTPase
dUTP pyrophosphatase [3] = molecular target: dUTP pyrophosphatase (Plasmodium falciparum 3D7, UniProt Q8II92, F46A); experiment: Inhibition of recombinant Plasmodium falciparum dUTPase F46A mutant expressed in Escherichia coli BL21(DE3) cells using dUTP as substrate by spectrophotometric analysis
Chain of dUTP pyrophosphatase (Plasmodium falciparum 3D7, UniProt Q8II92, F46A) (Q8II92 whole entry F46A): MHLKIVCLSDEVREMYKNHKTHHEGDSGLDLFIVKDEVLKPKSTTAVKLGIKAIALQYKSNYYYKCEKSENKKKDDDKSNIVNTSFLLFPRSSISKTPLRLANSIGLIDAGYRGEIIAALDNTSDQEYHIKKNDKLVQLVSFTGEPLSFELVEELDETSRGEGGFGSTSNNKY

[4] = Selectivity index, ratio of Ki for recombinant Plasmodium falciparum dUTPase I117A mutant expressed in Escherichia coli BL21(DE3) cells to Ki for human dUTPase
[5] = Inhibition of recombinant wild type Plasmodium falciparum dUTPase expressed in Escherichia coli BL21(DE3) cells using dUTP as substrate by spectrophotometric analysis
[6] = Selectivity index, ratio of Ki for recombinant Plasmodium falciparum dUTPase F46A mutant expressed in Escherichia coli BL21(DE3) cells to Ki for human dUTPase
dUTP pyrophosphatase [7] = molecular target: dUTP pyrophosphatase (Plasmodium falciparum 3D7, UniProt Q8II92, K96A); experiment: Inhibition of recombinant Plasmodium falciparum dUTPase K96A mutant expressed in Escherichia coli BL21(DE3) cells using dUTP as substrate by spectrophotometric analysis
Chain of dUTP pyrophosphatase (Plasmodium falciparum 3D7, UniProt Q8II92, K96A) (Q8II92 whole entry K96A): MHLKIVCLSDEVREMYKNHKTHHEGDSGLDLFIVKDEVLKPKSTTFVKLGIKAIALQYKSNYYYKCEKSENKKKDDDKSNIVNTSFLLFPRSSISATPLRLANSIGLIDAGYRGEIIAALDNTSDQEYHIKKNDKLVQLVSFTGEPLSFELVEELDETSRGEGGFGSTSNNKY

[8] = Selectivity index, ratio of Ki for recombinant Plasmodium falciparum dUTPase K96A mutant expressed in Escherichia coli BL21(DE3) cells to Ki for human dUTPase
Plasmodium falciparum = experiment: Antimalarial activity against blood stage Plasmodium falciparum infected in human red blood cells […] by propidium iodide staining based microscopic analysis; format: functional, organism-based
[9] = molecular target: T1, Deoxyuridine 5'-triphosphate nucleotidohydrolase, mitochondrial (Homo sapiens, UniProt P33316); experiment: Inhibition of human dUTPase using dUTP as substrate by spectrophotometric analysis
T1 sequence (P33316 whole entry): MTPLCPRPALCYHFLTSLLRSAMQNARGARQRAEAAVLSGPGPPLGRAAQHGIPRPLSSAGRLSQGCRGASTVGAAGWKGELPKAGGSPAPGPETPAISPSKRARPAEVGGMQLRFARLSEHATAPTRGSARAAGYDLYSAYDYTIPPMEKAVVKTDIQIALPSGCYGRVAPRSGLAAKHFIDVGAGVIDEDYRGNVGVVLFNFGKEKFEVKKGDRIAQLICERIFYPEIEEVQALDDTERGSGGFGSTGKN

Structure (SMILES)	Ki (dUTP pyrophosphatase [1]) [µM]	Ratio Ki [2]	Ki (dUTP pyrophosphatase [3]) [µM]	Ratio Ki [4]	Ki [5] [µM]	Ratio Ki [6]	Ki (dUTP pyrophosphatase [7]) [µM]	Ratio Ki [8]	IC50 (Plasmodium falciparum) [µM]	Ki [9] [µM]
O=c1ccn(COCCOC(c2ccccc2)(c2ccccc2)c2ccccc2)c(=O)[nH]1	8	24	13	2.1	0.7	1.3	–	–	–	–
O=c1ccn([C@H]2C[C@H](F)[C@@H](COC(c3ccccc3)(c3ccccc3)c3ccccc3)O2)c(=O)[nH]1	406	91	225	1.1	5	2	4.8	95	–	–
O=c1ccn(CCCCCCNC(c2ccccc2)(c2ccccc2)c2ccccc2)c(=O)[nH]1	4.4	> 556	35	> 227	1.8	> 29	0.15	> 6670	–	–
O=c1ccn(CCC(CO)CNC(c2ccccc2)(c2ccccc2)c2ccccc2)c(=O)[nH]1 (centres undefined)	0.27	28	29	21	0.2	0.19	0.04	142	–	–
O=c1ccn(CCCNC(c2ccccc2)(c2ccccc2)c2ccccc2)c(=O)[nH]1	0.6	7	28	2.4	0.2	0.04	0.04	35	–	–
CC(C)(C)[Si](OC[C@@H]1C=C[C@H](n2ccc(=O)[nH]c2=O)O1)(c1ccccc1)c1ccccc1	0.8	> 833	17	> 1250	1.2	> 59	0.21	> 2560	3	> 1000
O=c1ccn([C@H]2C[C@H](O)[C@@H](CNC(c3ccccc3)(c3ccccc3)c3ccccc3)O2)c(=O)[nH]1	1.3	192	20	35	0.24	2.3	0.11	418	–	–
O=c1ccn(C/C=C/COC(c2ccccc2)(c2ccccc2)c2ccccc2)c(=O)[nH]1	0.8	> 1670	6	> 1250	0.6	> 167	0.09	> 11100	–	–
O=c1ccn([C@H]2C=C[C@@H](COC(c3ccccc3)(c3ccccc3)c3ccccc3)O2)c(=O)[nH]1	1.6	83	20.3	98	1.9	8	0.39	402	> 11	157
